Entries after “also recorded” stand apart in the source; their conditions may differ. Structures can show the parent of a compound that is named as a salt. Where two headings read alike, the source gives them in different places.

We go through four compounds from paper PMC6348443 (Journal of Medicinal Chemistry, 2018).

Test [1] has as its target T1, MOR (Homo sapiens, UniProt P35372).
T1 construct: host or cells: CHO (CHO-hMOR)
The experiment in a line: competition radioligand binding, CHO cell membranes expressing human MOR, [3H]DAMGO. Here is the method: Membranes from CHO cells expressing human opioid receptors were prepared in 50 mM Tris-HCl buffer (pH 7.7) according to a previously described procedure.[64] Cells expressing human opioid receptors grown at confluence were removed from the culture plates by scraping, homogenized in 50 mM Tris buffer (pH 7.7), using a Polytron homogenizer, then centrifuged once and washed by an additional centrifugation at 27 000g for 15 min, at 4 °C. The final pellet was resuspended in Tris buffer and stored at −80 °C until use. Protein content of brain and cell membrane preparation homogenates was determined by the method of Bradford using bovine serum albumin as the standard.[65]
Rat brain membranes were incubated with either [^3H]DAMGO (1 nM, 45 min, 35 °C) or [^3H][Ile^5,6]deltorphin II (0.5 nM, 45 min, 35 °C) for labeling MOR or DOR receptors, respectively. Guinea-pig brain membranes were incubated with [^3H]U69,593 (1 nM, 30 min, 30 °C) for labeling KOR. Binding assays with CHO cell membranes were conducted at 25 °C for 60 min using [^3H]DAMGO (1 nM) or [^3H]diprenorphine (0.2 nM) for labeling MOR or DOR, respectively. Nonspecific binding was determined using 10 μM naloxone (rodent brain) or 1–10 μM of the unlabeled counterpart of each radioligand (CHO cells). Reactions were terminated by rapid filtration through Whatman glass fiber GF/C filters. Filters were washed three times with 5 mL of ice-cold 50 mM Tris-HCl buffer (pH 7.4) using a Brandel M24R cell harvester (Gaithersburg, MD). Radioactivity retained on the filters was counted by liquid scintillation counting using a Beckman Coulter LS6500 (Beckman Coulter Inc., Fullerton, CA). All binding experiments were performed in duplicate and repeated at least three times.
aDetermined in competition radioligand binding assays using CHO cell membranes expressing
human MOR and DOR. Values represent the mean ± SEM of three independent experiments each

The subject of a further test is mouse. More on the design: method as in PMID 25721395. Particulars: systemic ip administration; cited from earlier work.
Another test concerns rats. More on the design: method as in PMID 16339394. The following applies: given orally; cited from earlier work.
For test [2], the system named is MOR. The following applies: systemic sc 2b, icv CTAP; cited from earlier work.
Test [3] deals with T1, MOR. The experiment in a line: [35S]GTPγS binding assay, CHO-hMOR membranes. The format is biochemical. The following applies: for Emax: relative to reference full agonist DAMGO, read-out: MOR % stim. (In general: GTPγS resists hydrolysis and so accumulates on activated G proteins.)
The target of test [4] is T2, KOR (Homo sapiens, UniProt P41145).
T2 construct: host or cells: CHO (CHO-hKOR)
The experiment in a line: [35S]GTPγS binding assay, CHO-hKOR membranes. In kind it is biochemical. Particulars: for Emax: relative to reference full agonist U69,593, read-out: KOR % stim.

The test system of test [5] is male CD1 mice. Particulars: sc; cited from earlier work.
Test [6] deals with male CD1 mice. The experiment in a line: acetic acid-induced writhing assay after sc administration. The format is in vivo, mouse. Particulars: Mus musculus, 0.5 h, read-out: ED50 (95% CI), mice, sc, inhibition of writhing 30 min after drug administration.
Test [7] deals with T3, DOR (Homo sapiens, UniProt P41143).
T3 construct: host or cells: CHO (CHO-hDOR)
The experiment in a line: competition radioligand binding, CHO cell membranes expressing human DOR, [3H]diprenorphine.

Test [8] deals with peripheral opioid receptors. The experiment in a line: antagonism by naloxone methiodide in the acetic acid-induced writhing assay. In kind it is in vivo, mouse. The following applies: sc co-administration with naloxone methiodide 1 mg/kg; agonist 50 or 200 μg/kg sc; 30 min. The source says: To determine whether targeted 6-amino acid and 6-dipeptide analogues inhibit writhing behavior in mice through peripheral opioid receptors activation, we used naloxone methiodide.[27]
Values are shown as mean of writhes ± SEM (n = 6–7 mice per group). ***P < 0.001 vs control group; ^#P < 0.05, ^##P < 0.01 and ^###P < 0.001 vs agonist treated group, ANOVA with Tukey’s post hoc test.
Writhing was induced in male CD1 mice by ip injection of a 0.6% acetic acid aqueous solution as described previously.[48],[62] Groups of mice were administered sc different doses of test compound or saline (control), and 5 min prior to testing (25 min after drug or saline), each animal received an ip injection of acetic acid solution. Each mouse was placed in individual transparent Plexiglas chambers, and the number of writhes was counted during a 10 min observation period. […] For the antagonism study, naloxone methiodide was sc co-administered with the respective opioid agonist, and writhing was assessed as described above.

Test [9] has as its target T4, DOR (Rattus norvegicus, UniProt P33533).
T4 construct: Membranes were prepared from Sprague-Dawley rat brains or guinea-pig brains according to the described procedures; tissue Labortierkunde und Laborgenetik, Medizinische Universität Wien; host or cells: Sprague-Dawley rat brain without cerebella
The experiment in a line: competition radioligand binding, rat brain membranes, [3H][Ile5,6]deltorphin II. Particulars: for Ki: rat brain membranes, read-out: opioid receptor binding Ki DOR.

For test [10], the target named is T5, KOR (Cavia porcellus, UniProt P41144).
T5 construct: Membranes were prepared from Sprague-Dawley rat brains or guinea-pig brains according to the described procedures; tissue Labortierkunde und Laborgenetik, Medizinische Universität Wien; host or cells: guinea-pig brain without cerebella
The experiment in a line: competition radioligand binding, guinea-pig brain membranes, [3H]U69,593. The following applies: guinea-pig brain membranes; read-out: opioid receptor binding Ki KOR.

Test [11] deals with T6, MOR (Rattus norvegicus, UniProt P33535).
T6 construct: Membranes were prepared from Sprague-Dawley rat brains or guinea-pig brains according to the described procedures; tissue Labortierkunde und Laborgenetik, Medizinische Universität Wien; host or cells: Sprague-Dawley rat brain without cerebella
The experiment in a line: competition radioligand binding, rat brain membranes, [3H]DAMGO. Particulars: for Ki: rat brain membranes, read-out: opioid receptor binding Ki MOR.

In test [12] the target is T3, DOR. The experiment in a line: [35S]GTPγS binding assay, CHO-hDOR membranes. In kind it is biochemical. Particulars: for EC50: [35S]GTPγS, CHO human DOR membranes; for Emax: relative to reference full agonist DPDPE, read-out: DOR % stim.
The mark [13] stands for this setting: [35S]GTPγS, CHO human MOR membranes, read-out: MOR EC50.
[14] abbreviates: [35S]GTPγS, CHO human KOR membranes, read-out: KOR EC50.

Usually Ki stands for a measure of affinity in units of concentration, obtained from inhibition or displacement. As usually defined, the EC50 is the concentration giving half of the maximal effect. Turning to `CO[C@@]12CC[C@@H](NCC(=O)O)[C@@H]3Oc4c(O)ccc5c4[C@@]31CCN(C)[C@@H]2C5` [Compound 2b, 2-[(4,5α-Epoxy-3-Hydroxy-14β-Methoxy-17-Methylmorphinan-6β-yl)Amino]Acetic Acid], the Ki at MOR [1] stood at 0.9 ± 0.14 nM; on DOR [7], 10.1 ± 2.7 nM. Besides, the “effect of naloxone methiodide on antinociceptive effects” value in the test with mouse is “completely antagonized”. The “effect of sc naloxone methiodide on antihyperalgesic effects” value in the test on rats is “reversed”. Also, the “effect of intracerebroventricular CTAP on antinociceptive effects” value in the test on MOR [2] is “did not reverse”. Besides, the 50% effective concentration (EC50) at MOR [3] amounted to 3.78 ± 0.73 nM; at KOR [4], 361 ± 154 nM. The Emax on MOR [3] came out at 98 ± 9%; on KOR [4] it was 82 ± 9%. In the test with male CD1 mice [5], the “more potent than morphine in inhibiting the writhing response” value is reported as 24 times. Besides, the ED50 with male CD1 mice [6] came out at 0.0275 mg/kg. For the same compound, in test [8], the “effect of naloxone methiodide on antinociceptive effect” value was “reversed; also recorded: antagonized”.

`CO[C@@]12CC[C@H](N[C@H](C(=O)O)C3CCCCC3)[C@@H]3Oc4c(O)ccc5c4[C@@]31CCN(C)[C@@H]2C5` [Compound 18a, (2S)-2-[(4,5α-Epoxy-3-hydroxy-14β-methoxy-17-methyl-morphinan-6α-yl)-amino]-2-cyclohexylacetic Acid Dihydrochloride]: the values for the Ki at DOR [9], on KOR [10] and on MOR [11] were 14.3 ± 0.09 nM, 177 ± 30 nM and 1.23 ± 0.2 nM, respectively. Further, the “decreased DOR affinity vs 6β analogue” value on DOR [9] (rat brain, 18a vs 18b, 19a vs 19b) was determined as 11 times. For the same compound, the EC50 worked out at 2.88 ± 1.21 nM on MOR [3] (setting [13]), 250 ± 80 nM on KOR [4] (setting [14]) and 20.5 ± 8 nM at DOR [12]. Also, the Emax was 86 ± 8% at MOR [3], 52 ± 6% at KOR [4] and 101 ± 1% on DOR [12]. The “Ki ratio MOR/DOR/KOR” value at MOR [11] (from Ki in rat (MOR, DOR) and guinea-pig (KOR) brain membranes) is recorded as 1/12/144. Also, the ED50 in the test with male CD1 mice [6] amounted to 0.0206 mg/kg. Moreover, in [8], the “effect of naloxone methiodide on antinociceptive effect” value is on record as “reversed”.

With `CO[C@@]12CC[C@@H](N[C@H](C(=O)O)C3CCCCC3)[C@@H]3Oc4c(O)ccc5c4[C@@]31CCN(C)[C@@H]2C5` [Compound 18b, (2S)-2-[(4,5α-Epoxy-3-hydroxy-14β-methoxy-17-methyl-morphinan-6β-yl)-amino]-2-cyclohexylacetic Acid Dihydrochloride], the Ki on DOR [9] worked out at 1.3 ± 0.16 nM; at KOR [10], 118 ± 23 nM; on MOR [11], 1.66 ± 1.04 nM. For the same compound, the EC50 at MOR [3] (setting [13]) stood at 5.33 ± 0.89 nM; on KOR [4] (setting [14]), 282 ± 58 nM; at DOR [12], 3.57 ± 1.63 nM. Also, the Emax worked out at 86 ± 9% at MOR [3], 59 ± 7% at KOR [4] and 96 ± 10% on DOR [12]. For the same compound, the “effect of naloxone methiodide on antinociceptive effect” value in [8] is “antagonized”.

`CC[C@H](N[C@@H]1CC[C@@]2(OC)[C@H]3Cc4ccc(O)c5c4[C@@]2(CCN3C)[C@H]1O5)C(=O)O` [Compound 19b, (2S)-2-[(4,5α-Epoxy-3-hydroxy-14β-methoxy-17-methylmorphinan-6β-yl)amino]-2-ethylacetic Acid Dihydrochloride]: the Ki was 2.1 ± 0.33 nM on MOR [1]; 1.3 ± 0.24 nM on DOR [9]; 201 ± 10 nM on KOR [10]; 1.83 ± 0.04 nM on MOR [11]; 1.99 ± 0.84 nM at DOR [7]. Besides, the half-maximal effective concentration (EC50) on MOR [3] (setting [13]) was 5.47 ± 1.18 nM; at KOR [4] (setting [14]), 572 ± 18 nM; at DOR [12], 2.22 ± 1.64 nM. Besides, the Emax at MOR [3] was roughly 80%; on KOR [4], 72 ± 0.5%; on DOR [12], 100 ± 3%. The “increased agonist potency at DOR vs MOR” value at DOR [12] ([35S]GTPγS EC50) was 2–4 times. Besides, in test [8], the “effect of naloxone methiodide on antinociceptive effect” value is given as “antagonized”.
